Experiments:
[1] = system: primary mouse cortical neurons; assay: Synaptic density of primary mouse cortical neurons (synaptophysin P38 puncta), FIG. 6; type: cell-based; details: luM, 24 hours of treatment
Experimental: The effect of the indicated compounds on the synaptic density of primary mouse cortical neurons was determined after 24 hours of treatment. FIG. 6. Primary mouse cortical neurons were treated on day 15 in vitro with fascin-inhibiting small molecules at luM, or with vehicle (DMSO). After 24 hours of treatment, neurons were fixed, immunolabeled for a protein component of synapses, the presynaptic vesicle protein, synaptophysin (P38), and then stained with the nuclear dye DAPI. Immunolabeled neurons were imaged on a Leica confocal microscope. The numbers of P38-immunopositive puncta were analyzed using FUI with the Squash plugin.

fascin = fascin (Homo sapiens, UniProt Q16658); details: cited from earlier work

Structure (SMILES): O=C(Nc1nn(Cc2ccc(C(F)(F)F)cc2)c2ccccc12)c1ccco1 [compound 1, N-(1-(4-(trifluoromethyl)benzyl)-1H-indazol-3-yl)furan-2-carboxamide]
- Spine density compared to comparative compounds [1]: increase spine density more than comparative compounds 1 and 7
- Spine density compared to control ([1]; vs vehicle (DMSO)): increase spine density compared to control
- Fascin binding site (fascin; FIG. 5): bind to fascin at binding site 2
- Effect of binding on actin-binding sites of fascin (fascin): opens actin-binding site 2 and closes actin-binding site 1
